From PubChem BioAssay AID1053170 (The Scripps Research Institute Molecular Screening Center, 2014)
Active and inactive are the calls of the source. No rule for the calls is given here.

Target: E3 ubiquitin-protein ligase UHRF1 (Homo sapiens) (UniProt Q96T88)
Assay: blockers of UHRF1 binding to methyl-oligo – biochemical, TR-FRET, human UHRF1, dose response, counter-screen for MBD2 inhibitor project, late-stage follow-up (AID 1053170)
Conditions: TR-FRET UHRF1-methylated DNA binding

Sequence of E3 ubiquitin-protein ligase UHRF1 (Homo sapiens) (Q96T88 whole entry, looked up): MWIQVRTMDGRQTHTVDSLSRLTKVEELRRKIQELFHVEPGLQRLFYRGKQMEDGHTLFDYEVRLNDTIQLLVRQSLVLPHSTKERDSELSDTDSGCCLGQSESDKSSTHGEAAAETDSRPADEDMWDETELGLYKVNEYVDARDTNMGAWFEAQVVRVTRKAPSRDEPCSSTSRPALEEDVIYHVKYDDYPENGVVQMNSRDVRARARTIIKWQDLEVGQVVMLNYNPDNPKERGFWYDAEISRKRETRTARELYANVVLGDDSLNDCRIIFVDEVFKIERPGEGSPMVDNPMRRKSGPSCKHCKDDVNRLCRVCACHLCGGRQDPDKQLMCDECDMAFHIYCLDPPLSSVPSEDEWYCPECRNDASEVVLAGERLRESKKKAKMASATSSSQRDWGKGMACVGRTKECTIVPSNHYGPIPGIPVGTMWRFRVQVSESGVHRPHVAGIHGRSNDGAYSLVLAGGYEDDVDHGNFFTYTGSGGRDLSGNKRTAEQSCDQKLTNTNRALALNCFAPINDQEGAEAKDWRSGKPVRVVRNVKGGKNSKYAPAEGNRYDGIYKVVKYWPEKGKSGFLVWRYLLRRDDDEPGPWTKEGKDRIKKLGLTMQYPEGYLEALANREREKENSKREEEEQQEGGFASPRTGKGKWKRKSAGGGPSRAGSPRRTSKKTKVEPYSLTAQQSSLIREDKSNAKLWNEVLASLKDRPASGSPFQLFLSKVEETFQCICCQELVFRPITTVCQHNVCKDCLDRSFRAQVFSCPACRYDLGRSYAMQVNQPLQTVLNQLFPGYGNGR

Row | IC50 | Compound
1 | inactive | Clc1ccc2c(c1)-c1ccccc1C1=NCCN12
2 | inactive | CN(C)CCNC(=O)c1cccc2[nH]c(-c3ccncc3)nc12
3 | > 43.8 µM (inactive) | Cc1ccc(Cl)cc1N1CCN(S(=O)(=O)c2ccc3c(c2)NC(=O)C(C)C(=O)N3)CC1 (configuration not stated)
4 | > 43.8 µM (inactive) | O=C(Nc1ccc(OCc2ccccc2)cc1)c1ccccc1
5 | > 43.8 µM (inactive) | N=C1C(c2nc3ccccc3s2)=C(O)CN1NC(=O)c1c[nH]c2ccccc12
6 | > 43.8 µM (inactive) | CN(C)CCNc1ccc(CO)c2sc3ccc(O)cc3c(=O)c12
7 | > 43.8 µM (inactive) | COc1ccc(NC(=O)Cn2cc(C(C)=O)c3ccccc32)cc1
8 | > 43.8 µM (inactive) | CCOC(=O)c1oc2ccc(CNC(C)(C)C)c(Cl)c2c1C
9 | > 43.8 µM (inactive) | COc1ccc(NC(=O)CN2CCN(c3ccccc3C)CC2)cc1
10 | > 43.8 µM (inactive) | CC(=O)N(c1ccccc1)c1nc(/C=C/C(=O)Nc2c(C)cc(C)cc2C)cs1
11 | > 43.8 µM (inactive) | CSc1ccc(OC2CCCCC2NS(=O)(=O)c2ccccc2)cc1 (configuration not stated)
12 | inactive | c1ccc2c(c1)C1=NCCN1c1ccccc1-2
13 | > 43.8 µM (inactive) | COc1ccc2c(=O)c3c(=O)n(-c4ccccc4)c(-c4ccc(C)cc4)nc3oc2c1
14 | > 43.8 µM (inactive) | CSc1ccc(OC2CCCCC2NS(=O)(=O)c2ccc(Cl)cc2)cc1 (configuration not stated)
15 | inactive | Cc1cc2[nH]c3c4ccccc4nc(C)c3c2cc1C
16 | > 43.8 µM (inactive) | O=C(CSc1ccccn1)Nc1ccc(N2CCOCC2)cc1

Row | IC50 | Compound
17 | > 43.8 µM (inactive) | COc1ccccc1C(=O)COC(=O)c1ccc(N(C)C)cc1
18 | > 43.8 µM (inactive) | CC(C)C(=O)Nc1nnc(SCC(=O)NC2CCCC2)s1
19 | > 43.8 µM (inactive) | CCOc1ccc(S(=O)(=O)N2CCCC(C(=O)NCC3CCCO3)C2)cc1Cl (configuration not stated)
20 | inactive | Cc1c2cnn(CC(=O)Nc3c(F)c(F)cc(F)c3F)c(=O)c2c(C)n1Cc1ccccc1F
21 | inactive | COc1ccc(C(=O)NCCN(C)C)c2nc3ccccc3cc12
22 | > 43.8 µM (inactive) | CC(C)n1nc(C(=O)Nc2nc3ccccc3[nH]2)c2ccccc2c1=O
23 | > 43.8 µM (inactive) | CCCCn1c(NC(C)CC)nc2c1c(=O)[nH]c(=O)n2C (configuration not stated)
24 | > 43.8 µM (inactive) | CCc1cccc(OCC(=O)Nc2ccc(S(=O)(=O)Nc3ccccn3)cc2)c1
25 | > 43.8 µM (inactive) | O=C(CSc1nc(-c2ccccc2)c(-c2ccccc2)o1)N1CCOCC1
26 | > 43.8 µM (inactive) | COc1ccc(NC(=O)COC(=O)CCc2ccc(S(=O)(=O)N3CCOCC3)cc2)cc1Cl
27 | > 43.8 µM (inactive) | Cc1cc(C)n2nc(CC(=O)NCc3ccc(F)cc3)nc2n1
28 | inactive | CCOC(=O)c1cnc2c(ccc3ccccc32)c1NCCCN(C)C
29 | > 43.8 µM (inactive) | CCOC(=O)c1ccc(NC(=O)COc2ccc(CNCCO)cc2OCC)cc1
30 | > 43.8 µM (inactive) | COc1cccc2nc3c(C(=O)NCCN(C)C)cccc3cc12
31 | inactive | Cc1ccc(NCCN(C)C)c2c(=O)c3cc(O)ccc3sc12
32 | > 43.8 µM (inactive) | COc1ccc(C(=O)N2CCC(C(=O)Nc3ccc(C)cc3)CC2)cc1
